Numbers after ± are expanded uncertainties.
Experiment: xn = mol fraction of the nth substance listed
Settings: 101 kPa, Liquid, Pycnometric method

CC(O)CCCCO (stereo not drawn) [1,5-hexanediol] + O
mass density [kg/m3]
Settings	283.15 K	288.15 K	293.15 K	298.15 K	303.15 K	308.15 K
x1 = 0.001	999.62 ± 0.31	999.01 ± 0.29	998.08 ± 0.28	996.9 ± 0.29	995.49 ± 0.3	993.87 ± 0.32
x1 = 0.0021	999.54 ± 0.31	998.92 ± 0.29	997.97 ± 0.28	996.78 ± 0.29	995.34 ± 0.31	993.69 ± 0.32
x1 = 0.0037	999.45 ± 0.35	998.83 ± 0.29	997.87 ± 0.28	996.64 ± 0.29	995.17 ± 0.31	993.47 ± 0.36
x1 = 0.0053	999.39 ± 0.3	998.77 ± 0.29	997.8 ± 0.28	996.54 ± 0.29	995.05 ± 0.3	993.32 ± 0.32
x1 = 0.0071	999.38 ± 0.31	998.74 ± 0.29	997.74 ± 0.28	996.46 ± 0.29	994.97 ± 0.3	993.19 ± 0.49
x1 = 0.0089	999.41 ± 0.31	998.73 ± 0.29	997.7 ± 0.28	996.4 ± 0.29	994.91 ± 0.3	993.09 ± 0.32
x1 = 0.0111	999.49 ± 0.31	998.75 ± 0.29	997.68 ± 0.28	996.36 ± 0.29	994.86 ± 0.3	992.99 ± 0.32
x1 = 0.0145	999.68 ± 0.31	998.84 ± 0.29	997.7 ± 0.28	996.34 ± 0.29	994.79 ± 0.3	992.85 ± 0.32
x1 = 0.0194	1000.04 ± 0.31	999.07 ± 0.3	997.8 ± 0.28	996.37 ± 0.29	994.7 ± 0.3	992.68 ± 0.32
x1 = 0.0324	1001.21 ± 0.31	999.91 ± 0.3	998.22 ± 0.28	996.47 ± 0.3	994.45 ± 0.31	992.23 ± 0.32
x1 = 0.0507	1002.48 ± 0.31	1000.63 ± 0.3	998.55 ± 0.29	996.31 ± 0.3	994.04 ± 0.31	991.47 ± 0.32
x1 = 0.0738	1002.95 ± 0.31	1000.72 ± 0.3	998.24 ± 0.29	995.66 ± 0.3	993.05 ± 0.31	990.3 ± 0.32

OCCCCCCO [1,6-hexanediol] + O
mass density [kg/m3]
Settings	283.15 K	288.15 K	293.15 K	298.15 K	303.15 K	308.15 K
x1 = 0.0009	999.67 ± 0.3	999.02 ± 0.29	998.12 ± 0.28	996.93 ± 0.3	995.54 ± 0.31	993.92 ± 0.32
x1 = 0.0019	999.65 ± 0.3	998.96 ± 0.29	998.04 ± 0.28	996.83 ± 0.29	995.42 ± 0.31	993.78 ± 0.32
x1 = 0.0037	999.63 ± 0.3	998.86 ± 0.29	997.92 ± 0.28	996.68 ± 0.29	995.24 ± 0.31	993.57 ± 0.32
x1 = 0.0054	999.64 ± 0.3	998.8 ± 0.29	997.84 ± 0.28	996.58 ± 0.29	995.11 ± 0.3	993.41 ± 0.32
x1 = 0.0074	999.66 ± 0.3	998.78 ± 0.29	997.78 ± 0.28	996.49 ± 0.29	994.99 ± 0.3	993.24 ± 0.32
x1 = 0.009	999.68 ± 0.31	998.78 ± 0.29	997.76 ± 0.28	996.43 ± 0.29	994.89 ± 0.3	993.11 ± 0.32
x1 = 0.0107	999.71 ± 0.31	998.8 ± 0.29	997.72 ± 0.28	996.38 ± 0.29	994.79 ± 0.3	992.99 ± 0.32
x1 = 0.0125	999.76 ± 0.31	998.83 ± 0.29	997.7 ± 0.28	996.32 ± 0.29	994.69 ± 0.3	992.87 ± 0.32
x1 = 0.0145	999.83 ± 0.31	998.88 ± 0.29	997.68 ± 0.28	996.26 ± 0.29	994.59 ± 0.3	992.74 ± 0.32
x1 = 0.0159	999.88 ± 0.31	998.92 ± 0.29	997.67 ± 0.28	996.23 ± 0.29	994.52 ± 0.3	992.65 ± 0.32
x1 = 0.0177	999.96 ± 0.31	998.98 ± 0.29	997.66 ± 0.28	996.18 ± 0.3	994.43 ± 0.31	992.54 ± 0.32
x1 = 0.0349	1000.78 ± 0.31	999.42 ± 0.3	997.56 ± 0.28	995.67 ± 0.3	993.61 ± 0.31	991.57 ± 0.32
x1 = 0.0514	1001.11 ± 0.31	999.3 ± 0.3	997.34 ± 0.29	995.07 ± 0.3	992.8 ± 0.31	990.58 ± 0.32
x1 = 0.0694	1001.08 ± 0.31	998.88 ± 0.3	996.87 ± 0.29	994.3 ± 0.3	991.84 ± 0.31	989.39 ± 0.32
x1 = 0.0983	1000.63 ± 0.31	997.95 ± 0.3	995.62 ± 0.29	992.81 ± 0.3	990.14 ± 0.31	987.3 ± 0.32
x1 = 0.112	1000.09 ± 0.32	997.54 ± 0.3	994.84 ± 0.29	992.04 ± 0.3	989.26 ± 0.31	986.33 ± 0.32

— the NIST ThermoML archive (doi:10.1016/j.jct.2007.01.009)
